Experimental data published in patent US20070004724A1, “(+)-(2S,3s)-2-(3-chlorophenyl)-3,5,5-trimethyl-2-morpholinor for treating anxiety” (priority 2003, published 2007).
Structures can show the parent of a compound that is named as a salt.

Experiments:
Male Sprague Dawley rats [1] = assay: Social interaction test in rats, chronic study; assay type: in vivo, rat; details: for Number of line crossings: motor activity; for Number of line crossings / Time spent in active social interaction: average±s.e.
Experimental: (§1) Social Interaction Test in Rats [Animal Models for Predicting Clinical Efficacy of Anxiolytic Drugs: Social Behaviour. Neuropsychobiology. 13 (1-2) 55-62, 1985]
(§2) Male Sprague Dawley rats (350-400 g at day of test, Charles River, Italy) were individually housed for five days before the test session. The 15 minutes social interaction test was performed between 9:00 to 14:00. Pairs of rats, weight and treatment matched, were placed in the test arena under high light condition. Active social interaction (sniffing, following, grooming, biting, boxing, crawling over and under) and motor activity, in terms of line crossing were scored by an observer blind to the drug treatment. The animals were treated orally with vehicle (2 ml/kg) or with the hydrochloride salt of the compound of formula (I) at 3, 10 and 30 mg/kg, 45 minutes prior to the test (acute study), or for 20 days twice a day and with a final treatment given on day 21, the last treatment given 45 minutes before the test (chronic study). An additional group of rats (positive control group) received a single oral dose of chlordiazepoxide (CDP) 4 mg/kg 1 hour before testing.
The results of the chronic study are given below in Table 3 (values given as average±s.e.), with the data for social interaction also illustrated in FIG. 1.

Male Sprague Dawley rats [2] = assay: Social interaction test in rats, acute study; assay type: in vivo; details: acute rat social interaction study
Experimental: as §1, §2
The results for social interaction in the acute study are illustrated in FIG. 2.

[3] = biological target: T1, serotonin uptake, synaptosomes from rat hypothalamus (Rattus norvegicus, UniProt P31652); assay: In vitro synaptosomal uptake of [3H]-serotonin; assay type: biochemical
T1 construct: Synaptosomes for use in obtaining in vitro uptake data were prepared from hypothalamus or striatum; from tissue; host or cells: rat hypothalamus synaptosomes
T1 sequence (P31652 whole entry): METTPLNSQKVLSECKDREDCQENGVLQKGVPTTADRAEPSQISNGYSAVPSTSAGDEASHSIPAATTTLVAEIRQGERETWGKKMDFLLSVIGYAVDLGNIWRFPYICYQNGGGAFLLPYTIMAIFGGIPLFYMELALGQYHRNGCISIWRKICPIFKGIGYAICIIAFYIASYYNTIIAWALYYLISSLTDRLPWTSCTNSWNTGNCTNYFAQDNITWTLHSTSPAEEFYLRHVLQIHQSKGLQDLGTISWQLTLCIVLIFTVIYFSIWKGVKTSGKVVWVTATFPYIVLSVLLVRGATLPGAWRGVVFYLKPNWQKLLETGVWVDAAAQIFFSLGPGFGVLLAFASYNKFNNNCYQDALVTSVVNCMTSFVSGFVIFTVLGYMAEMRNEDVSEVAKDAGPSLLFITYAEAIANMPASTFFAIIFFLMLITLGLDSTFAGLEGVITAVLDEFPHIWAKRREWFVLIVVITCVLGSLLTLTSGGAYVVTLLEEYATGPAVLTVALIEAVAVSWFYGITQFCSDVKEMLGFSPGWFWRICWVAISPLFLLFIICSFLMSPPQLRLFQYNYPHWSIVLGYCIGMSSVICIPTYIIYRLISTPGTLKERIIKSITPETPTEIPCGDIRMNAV
Source text: Similarities and differences. Molecular Pharmacology, 21: p.

[4] = biological target: T2, dopamine (DA) uptake, synaptosomes from rat caudoputamen (Rattus norvegicus, UniProt P23977); assay: In vitro synaptosomal uptake of [3H]-dopamine; assay type: biochemical; details: [3H]-dopamine uptake, mean ± SEM of 3 experiments
T2 construct: Synaptosomes for use in obtaining in vitro uptake data were prepared from hypothalamus or striatum; from tissue; host or cells: rat caudoputamen (striatum) synaptosomes
T2 sequence (P23977 whole entry): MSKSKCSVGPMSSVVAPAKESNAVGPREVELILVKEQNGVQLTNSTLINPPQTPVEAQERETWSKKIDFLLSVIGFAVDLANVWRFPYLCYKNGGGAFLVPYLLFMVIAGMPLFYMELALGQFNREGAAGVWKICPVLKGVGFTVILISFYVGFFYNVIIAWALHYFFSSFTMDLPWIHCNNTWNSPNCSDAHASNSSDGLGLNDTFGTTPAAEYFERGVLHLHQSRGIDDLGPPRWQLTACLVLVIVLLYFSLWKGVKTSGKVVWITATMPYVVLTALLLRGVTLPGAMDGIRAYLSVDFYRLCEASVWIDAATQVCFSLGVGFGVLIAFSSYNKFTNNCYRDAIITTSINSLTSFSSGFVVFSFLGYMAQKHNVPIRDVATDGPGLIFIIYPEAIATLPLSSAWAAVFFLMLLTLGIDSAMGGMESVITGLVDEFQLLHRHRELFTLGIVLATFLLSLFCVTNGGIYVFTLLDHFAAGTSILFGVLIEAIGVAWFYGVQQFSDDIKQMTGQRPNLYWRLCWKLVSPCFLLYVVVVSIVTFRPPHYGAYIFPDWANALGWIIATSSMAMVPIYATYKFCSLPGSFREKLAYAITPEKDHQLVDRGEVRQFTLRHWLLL
Experimental: In vitro uptake was determined, as reported previously, using synaptosomes prepared from rat caudoputamen (for dopamine uptake) and hypothalamus (for NA and serotonin uptake) using [^3H]-dopamine, [^3H]-NA and [^3H]-serotonin as transport substrates, respectively. See Eckhardt, S. B., R. A. Maxwell, and R. M. Ferris, A Structure-Activity Study of the Transport Sites for the Hypothalamic and Striatal Catecholamine Uptake Systems. Similarities and differences. Molecular Pharmacology, 21: p. 374-9, 1982.
Synaptosomes for use in obtaining in vitro uptake data were prepared from hypothalamus or striatum by gently homogenizing the tissue in a 0.3 M sucrose/25 mM Tris pH 7.4 buffer containing iproniazid phosphate to inhibit monoamine oxidase. The homogenate was centrifuged at 1100×g at 4° C. for 10 min and the supernatant was used for uptake studies. […] Under these conditions uptake was linear with respect to both for substrate and tissue (with <5% total substrate transported). Non-specific uptake was defined as uptake at 0° C. [^3H]-substrate, which had been transported into synaptosomes, was separated from free [^3H]-substrate by filtration over GF/B filters and washing with cold Krebs-Henseleit buffer. The filters were counted for tritum in a liquid scintillation spectrometer.

[5] = tested on: cell-lines expressing human monoamine transporters; assay: Compound-induced cytotoxicity in the transporter cell-lines; assay type: cell-based; details: at any of the concentrations causing reuptake inhibition
CD-1 mice = assay: Light & dark box test in mice; assay type: in vivo; details: 3 mg/kg oral, 30 minutes before test
Source text: Light & Dark Box Test in Mice [Costall B. Jones B J. Kelly […]. and Tomkins D M. Exploration of Mice in a Black and White Test Box: Validation as a Model of Anxiety. Pharmacology, Biochemistry & Behavior. 32 (3):777-85, 1989] The light-dark box test consists of a Perspex box which is divided into two compartments, two-thirds of which is painted white and the remaining third is painted black. Mice are able to move freely between the two compartments using a small gap in the wall separating the two compartments. The floor is marked with lines, which provided an index of motor activity of the animals (number of line crossings). A white light (60 W) is placed over the white compartment of the box to provide a brightly-lit area which the animals find aversive. Mice tend to escape from this area preferring to remain in the black area, returning only occasionally to explore the white area. […] CD-1 mice (25-30 g, Charles River, Italy) were placed individually into the centre of the white side of the black/white test box for the 5 min test period and the behaviour of the mice was recorded by remote video recording. Behaviour of the mice was assessed subsequently from the tape recordings by an observer who was unaware of the animals' treatment. Different parameters were assessed to estimate both the anxiolytic and the sedative effects of the compound tested. […]

[6] = chronic study, at 3 and 10 mg/kg oral

## CNC1=Nc2ccc(Cl)cc2C(c2ccccc2)=[N+]([O-])C1 [CDP, chlordiazepoxide, reference compound]
Male Sprague Dawley rats [1]; positive control, single oral dose 4 mg/kg, n=14
  Number of line crossings: 560.1 ± 29.6
Male Sprague Dawley rats [1]; positive control, single oral dose 4 mg/kg
  Time spent in active social interaction, % (change relative to vehicle): 53.2%
Male Sprague Dawley rats [1]; positive control, single oral dose 4 mg/kg 1 hour before testing, n=14
  Time spent in active social interaction: 124.4 ± 10.7 s

## C[C@@H]1NC(C)(C)CO[C@@]1(O)c1cccc(Cl)c1 [Formula (I), (+)-(2S,3S)-2-(3-chlorophenyl)-3,5,5-trimethyl-2-morpholinol]
Male Sprague Dawley rats [2]
  anxiogenic activity: lack of anxiogenic activity
[3]
  IC50: > 30 µM
[3]; at 30 μM
  inhibition of serotonin uptake: no inhibition
[4]
  IC50: 9.3 ± 0.41 µM

## C[C@@H]1NC(C)(C)CO[C@@]1(O)c1cccc(Cl)c1 [Formula (I). HCl, (+)-(2S,3S)-2-(3-chlorophenyl)-3,5,5-trimethyl-2-morpholinol hydrochloride]
[5]
  cytotoxicity: No cytotoxicity was observed
Male Sprague Dawley rats [1]; chronic study, 3 mg/kg oral twice a day 20 days + day 21, 45 min before test, n=14
  Time spent in active social interaction: 114.0 ± 11.5 s
Male Sprague Dawley rats [1]; chronic study, 10 mg/kg oral twice a day 20 days + day 21, 45 min before test, n=10
  Time spent in active social interaction: 126.4 ± 13.8 s
Male Sprague Dawley rats [1]; chronic study, 30 mg/kg oral twice a day 20 days + day 21, 45 min before test, n=14
  Time spent in active social interaction: 97.6 ± 8.7 s
Male Sprague Dawley rats [1]; chronic study, at 30 mg/kg oral
  effect on social interaction: lack of effect on social interaction
Male Sprague Dawley rats [1]; chronic study, at 30 mg/kg oral, compared to vehicle
  effect on locomotor activity: significant reduction in locomotor activity
Male Sprague Dawley rats [1]; [6]
  anxiolytic-like effect in social interaction test: able to induce an anxiolytic-like effect
  effect on locomotor activity: without any significant effects on locomotor activity
Male Sprague Dawley rats [1]; chronic study, 3 mg/kg oral, n=14
  Number of line crossings: 587.0 ± 29.1
Male Sprague Dawley rats [1]; chronic study, 10 mg/kg oral, n=10
  Number of line crossings: 571.0 ± 44.1
Male Sprague Dawley rats [1]; chronic study, 30 mg/kg oral, n=14
  Number of line crossings: 476.2 ± 42.6
CD-1 mice
  anxiolytic-like effect in light & dark box test: able to induce an anxiolytic-like effect
